The target in assay [1] is Proteasome chymotrypsin-like activity (S26 protein from RPMI8226 cells) (Homo sapiens, UniProt P28074). Format: biochemical. Conditions: S26 protein from RPMI8226 cell extract 2 ug/well, substrate 20 uM, 37° C., 90 minutes; read-out: Proteasome chymotrypsin-like activity inhibition IC50. A digest of the protocol: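 Inhibition is measured in crude proteasome (S26) from RPMI8226 cells at 2 ug/well, using 20 uM substrate specific to each activity: Suc-LLVY-AMC for chymotrypsin-like, Z-LLE-AMC for caspase-like. Compounds span a dilution series from 10 uM.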
Chain of Proteasome chymotrypsin-like activity (S26 protein from RPMI8226 cells) (P28074 60-263 limits assumed): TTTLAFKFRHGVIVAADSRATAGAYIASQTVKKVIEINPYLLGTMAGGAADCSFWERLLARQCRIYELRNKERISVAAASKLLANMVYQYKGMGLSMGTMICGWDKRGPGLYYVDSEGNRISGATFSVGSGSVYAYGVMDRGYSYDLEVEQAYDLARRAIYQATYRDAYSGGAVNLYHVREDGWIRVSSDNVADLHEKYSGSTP

For assay [2], the target named is Proteasome caspase-like activity (S26 protein from RPMI8226 cells) (Homo sapiens (Human), UniProt P28072). The assay can be described thus: Proteasome caspase-like activity inhibition (Z-Leu-Leu-Glu-AMC fluorogenic substrate, RPMI8226 cell extract). Format: biochemical. Conditions: S26 protein from RPMI8226 cell extract 2 ug/well, substrate 20 uM, 37° C., 90 minutes. The method, then:
The abilities to inhibit the proteasome activity of the compounds described in the Examples of the present invention and boronic acid drugs were evaluated as follows.
RPMI8226 cells, which is a multiple myeloma cell line, were cultured and then separated by a centrifuge, and washed twice with phosphate buffered saline (PBS). 20 mM of a tris-HCl (pH 8.0) buffer solution was added to the washed cells, and the cells were disrupted by a homogenizer and centrifuged to obtain S26 protein from the supernatant. Suc-Leu-Leu-Val-Tyr-AMC, for a fluorogenic substrate for the chymotrypsin-like activity of the proteasome, and Z-Leu-Leu-Glu-AMC, for a fluorogenic substrate for the caspase-like activity, were purchased from Calbiochem, EMD Millipore and used. Into each well of a 96-well plate (opaque, black round bottom), 20 ul of the S26 protein (final RPMI8226 cell extract concentration: 2 ug/well), 10 ul of S26 proteasome inhibitor serially diluted from 10 uM (final DMSO concentration: 0.5%), and 20 ul of the fluorogenic substrate for the proteasome chymotrypsin-like or caspase-like activity (final concentration: 20 uM) were added and mixed and allowed to react in a 37° C. incubator for 90 minutes. The fluorescence of the fluorogenic substrate was measured by FlexStation II Fluorometer (Molecular Devices). The fluorescence inhibited by the compound diluted at each concentration was measured as the relative percentage value for the amount obtained from the treatment only with the S26 protein and the fluorogenic substrate. IC50 (inhibitory concentration 50) was expressed in terms of a concentration that inhibits 50% of the maximum fluorescence induced by the fluorogenic substrate.

The record followed here is patent US12570675B2, “Boronic acid compounds” (LG CHEM, LTD., priority 2020, dated 2026).

Bounds are passed on as bounds.

Chain of Proteasome caspase-like activity (S26 protein from RPMI8226 cells) (P28072 whole entry): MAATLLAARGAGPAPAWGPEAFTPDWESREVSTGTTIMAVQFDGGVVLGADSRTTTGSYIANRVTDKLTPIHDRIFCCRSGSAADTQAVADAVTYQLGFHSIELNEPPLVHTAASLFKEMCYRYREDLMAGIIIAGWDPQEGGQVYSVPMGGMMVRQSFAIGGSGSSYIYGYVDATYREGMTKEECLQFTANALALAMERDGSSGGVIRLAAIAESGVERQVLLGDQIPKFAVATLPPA

For `CC(C)C[C@H](NC(=O)C1CC([C@@H](NC(=O)c2cc(Cl)ccc2Cl)C(C)C)=NO1)B(O)O` (stereo partly drawn) [Example 72, ((1R)-1-(3-((S)-1-(2,5-dichlorobenzamido)-2-methylpropyl)-4,5-dihydroisoxazol-5-carboxamido)-3-methylbutyl)boronic acid], the values for the IC50 in assay [1] and in assay [2] were < 10 nM and > 100 nM, respectively.

Take `CC(C)C[C@H](NC(=O)C1(Cc2ccccc2)CC(CNC(=O)c2ccc(C(F)(F)F)nc2)=NO1)B(O)O` (stereo partly drawn) [Example 179, ((1R)-1-(5-benzyl-3-((6-(trifluoromethyl)nicotinamido)methyl)-4,5-dihydroisoxazol-5-carboxamido)-3-methylbutyl)boronic acid]: the IC50 in assay [1] is < 10 nM; in assay [2], > 500 nM.

`CC(C)C[C@H](NC(=O)C1(Cc2ccccc2)CC(CNC(=O)c2cnc3c(ccn3C(C)C)c2)=NO1)B(O)O` (stereo partly drawn) [Example 212, ((1R)-1-(5-benzyl-3-((1-isopropyl-1H-pyrrolo[2,3-b]pyridin-5-carboxamido)methyl)-4,5-dihydroisoxazol-5-carboxamido)-3-methylbutyl)boronic acid]: the IC50 in assay [1] is < 10 nM; in assay [2], > 100 nM.

`Cc1cnc(C(=O)NCC2=NOC(Cc3ccccc3)(C(=O)N[C@@H](CC(C)C)B(O)O)C2)cn1` (stereo partly drawn) [Example 151, [(1R)-1-[[5-benzyl-3-[[(5-methylpyrazin-2-carbonyl)amino]methyl]-4H-1,2-oxazol-5-carbonyl]amino]-3-methyl-butyl]boronic acid]: the IC50 in assay [1] was < 10 nM; in assay [2] it was > 250 nM.

`Cc1nc(COCC2=NOC(Cc3ccccc3)(C(=O)N[C@@H](CC(C)C)B(O)O)C2)cs1` (stereo partly drawn) [Example 46, ((1R)-1-(5-benzyl-3-(((2-methylthiazol-4-yl)methoxy)methyl)-4,5-dihydroisoxazol-5-carboxamido)-3-methylbutyl)boronic acid]: the figures for the IC50 in assay [1] and in assay [2] were < 10 nM and > 250 nM, respectively.

With `Cc1nc(C(=O)NCC2=NOC(Cc3ccccc3)(C(=O)N[C@@H](CC(C)C)B(O)O)C2)c(Cl)s1` (stereo partly drawn) [Example 119, ((1R)-1-(5-benzyl-3-((5-chloro-2-methylthiazol-4-carboxamido)methyl)-4,5-dihydroisoxazol-5-carboxamido)-3-methylbutyl)boronic acid], the IC50 is < 10 nM in assay [1] and > 1000 nM in assay [2].

As for `CC(C)C[C@H](NC(=O)C1(Cc2ccccc2)CC(CNC(=O)c2ccnn2C(C)C)=NO1)B(O)O` (stereo partly drawn) [Example 171, ((1R)-1-(5-benzyl-3-((1-isopropyl-1H-pyrazol-5-carboxamido)methyl)-4,5-dihydroisoxazol-5-carboxamido)-3-methylbutyl)boronic acid], the IC50 in assay [1] was < 10 nM; in assay [2], > 500 nM.

In the case of `CC(C)C[C@H](NC(=O)C1(Cc2ccccc2)CC(CNC(=O)c2cc(-c3ccccc3)nn2C(C)C)=NO1)B(O)O` (stereo partly drawn) [Example 207, ((1R)-1-(5-benzyl-3-((1-isopropyl-3-phenyl-1H-pyrazol-5-carboxamido)methyl)-4,5-dihydroisoxazol-5-carboxamido)-3-methylbutyl)boronic acid], the IC50 was < 10 nM in assay [1] and > 250 nM in assay [2].

In the case of `Cc1nc2ccccn2c1C(=O)NCC1=NOC(Cc2ccccc2)(C(=O)N[C@@H](CC(C)C)B(O)O)C1` (stereo partly drawn) [Example 133, ((1R)-1-(5-benzyl-3-((2-methylimidazo[1,2-a]pyridin-3-carboxamido)methyl)-4,5-dihydroisoxazol-5-carboxamido)-3-methylbutyl)boronic acid], the IC50 was < 10 nM in assay [1] and > 500 nM in assay [2].

For the compound `Cc1nc(C(=O)NCC2=NOC(Cc3ccccc3)(C(=O)N[C@@H](CC(C)C)B(O)O)C2)cs1` (stereo partly drawn) [Example 117, ((1R)-1-(5-benzyl-3-((2-methylthiazol-4-carboxamido)methyl)-4,5-dihydroisoxazol-5-carboxamido)-3-methylbutyl)boronic acid], the results for the concentration for half-maximal inhibition (IC50) in assay [1] and in assay [2] were < 10 nM and > 1000 nM, respectively.

`CC(C)C[C@H](NC(=O)C1CC(CNC(=O)c2cccc3ccccc23)=NO1)B(O)O` (stereo partly drawn) [Example 64, ((1R)-1-(3-((1-naphthamido)methyl)-4,5-dihydroisoxazol-5-carboxamido)-3-methylbutyl)boronic acid]: the IC50 in assay [1] is < 10 nM; in assay [2], > 250 nM.

In the case of `CC(C)C[C@H](NC(=O)C1(Cc2ccccc2)CC(COCc2ccccc2)=NO1)B(O)O` (stereo partly shown) [Example 256], the IC50 is < 10 nM in assay [1] and > 1000 nM in assay [2].

With `CC(C)C[C@H](NC(=O)C1(Cc2ccccc2)CC(CNC(=O)c2cnn(C(C)C)c2)=NO1)B(O)O` (stereo partly drawn) [Example 188, ((1R)-1-(5-benzyl-3-((1-isopropyl-1H-pyrazol-4-carboxamido)methyl)-4,5-dihydroisoxazol-5-carboxamido)-3-methylbutyl)boronic acid], the concentration for half-maximal inhibition (IC50) was < 10 nM in assay [1] and > 1000 nM in assay [2].

`CC(C)C[C@H](NC(=O)C1CC([C@H](CC(C)C)NC(=O)c2nccc3ccccc23)=NO1)B(O)O` (stereo partly drawn) [Example 73, ((1R)-1-(3-((S)-1-(isoquinolin-1-carboxamido)-3-methylbutyl)-4,5-dihydroisoxazol-5-carboxamido)-3-methylbutyl)boronic acid]: the half-maximal inhibitory concentration (IC50) in assay [1] was < 25 nM; in assay [2], > 100 nM.

Consider `Cc1nc(C)c(COCC2=NOC(Cc3ccccc3)(C(=O)N[C@@H](CC(C)C)B(O)O)C2)s1` (stereo partly drawn) [Example 51, ((1R)-1-(5-benzyl-3-(((2,4-dimethylthiazol-5-yl)methoxy)methyl)-4,5-dihydroisoxazol-5-carboxamido)-3-methylbutyl)boronic acid], for which the half-inhibitory concentration (IC50) is < 10 nM in assay [1] and > 500 nM in assay [2].

Take `CC(C)C[C@H](NC(=O)C1(Cc2ccccc2)CC(CNC(=O)c2cccc3ncccc23)=NO1)B(O)O` (stereo partly drawn) [Example 116, ((1R)-1-(5-benzyl-3-((quinolin-5-carboxamido)methyl)-4,5-dihydroisoxazol-5-carboxamido)-3-methylbutyl)boronic acid]: the IC50 in assay [1] is < 10 nM; in assay [2], > 2500 nM.

For `CC(C)C[C@H](NC(=O)C1(Cc2cccc(F)c2)CC(CNC(=O)c2nccc3ccccc23)=NO1)B(O)O` (stereo partly drawn) [Example 187, ((1R)-1-(5-(3-fluorobenzyl)-3-((isoquinolin-1-carboxamido)methyl)-4,5-dihydroisoxazol-5-carboxamido)-3-methylbutyl)boronic acid], the IC50 in assay [1] is < 10 nM; in assay [2], > 500 nM.

For `Cc1cc(C(=O)NCC2=NOC(Cc3ccccc3)(C(=O)N[C@@H](CC(C)C)B(O)O)C2)n(-c2ccccc2)n1` (stereo partly drawn) [Example 246, ((1R)-1-(5-benzyl-3-((3-methyl-1-phenyl-1H-pyrazol-5-carboxamido)methyl)-4,5-dihydroisoxazol-5-carboxamido)-3-methylbutyl)boronic acid], the figures for the IC50 in assay [1] and in assay [2] were < 10 nM and > 1000 nM, respectively.

In the case of `O=C(NCC1=NOC(Cc2ccccc2)(C(=O)N[C@@H](Cc2ccccc2)B(O)O)C1)c1ccccc1` (stereo partly drawn) [Example 292, ((1R)-1-(3-(benzamidomethyl)-5-benzyl-4,5-dihydroisoxazol-5-carboxamido)-2-phenylethyl)boronic acid], the results for the IC50 in assay [1] and in assay [2] were < 10 nM and > 1000 nM, respectively.

Take `CC(C)C[C@H](NC(=O)C1(Cc2ccccc2)CC(COCc2nccc3ccccc23)=NO1)B(O)O` (stereo partly drawn) [Example 49, ((1R)-1-(5-benzyl-3-((isoquinolin-1-ylmethoxy)methyl)-4,5-dihydroisoxazol-5-carboxamido)-3-methylbutyl)boronic acid]: the 50% inhibitory concentration (IC50) in assay [1] is < 10 nM; in assay [2], > 1000 nM.

Take `CC(C)[C@H](NC(=O)C1(Cc2ccccc2)CC(CNC(=O)c2ccccc2)=NO1)B(O)O` (stereo partly drawn) [Example 294, ((1R)-1-(3-(benzamidomethyl)-5-benzyl-4,5-dihydroisoxazol-5-carboxamido)-2-methylpropyl)boronic acid]: the half-inhibitory concentration (IC50) in assay [1] was < 10 nM; in assay [2] it was > 1000 nM.

`CC(C)C[C@H](NC(=O)C1(Cc2ccccc2)CC(CNC(=O)c2cccc3c2ccn3C(C)C)=NO1)B(O)O` (stereo partly drawn) [Example 134, ((1R)-1-(5-benzyl-3-((1-isopropyl-1H-indol-4-carboxamido)methyl)-4,5-dihydroisoxazol-5-carboxamido)-3-methylbutyl)boronic acid]: the results for the IC50 in assay [1] and in assay [2] were < 10 nM and > 500 nM, respectively.

For the compound `CC(C)C[C@H](NC(=O)C1(Cc2ccccc2F)CC(CNC(=O)c2nccc3ccccc23)=NO1)B(O)O` (stereo partly drawn) [Example 170, ((1R)-1-(5-(2-fluorobenzyl)-3-((isoquinolin-1-carboxamido)methyl)-4,5-dihydroisoxazol-5-carboxamido)-3-methylbutyl)boronic acid], the IC50 in assay [1] is < 10 nM; in assay [2] it was > 1000 nM.

The IC50 is the concentration that gives 50% inhibition.
